# Results reported in PubChem BioAssay (NCI).
#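 Five compound concentrations were applied to cells in 96-well plates for 48 hours; endpoints were derived by simple linear interpolation of the resulting dose-response curve. At the TGI there is no net growth.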
# Tests used:
# Assay in all cases: NCI-60 cell line screen, 48 h
# KM12 colon = test system: KM12 colon
# HCC-2998 colon = test system: HCC-2998 colon
# OVCAR-8 ovarian = test system: OVCAR-8 ovarian
# SK-MEL-2 melanoma = test system: SK-MEL-2 melanoma
# CAKI-1 renal = test system: CAKI-1 renal
# MOLT-4 leukemia = test system: MOLT-4 leukemia
# RXF 393 renal = test system: RXF 393 renal
# SR leukemia = test system: SR leukemia
# T-47D breast = test system: T-47D breast
# 786-0 renal = test system: 786-0 renal
# DU-145 prostate = test system: DU-145 prostate
SMILES,TGI (KM12 colon),TGI (HCC-2998 colon),TGI (OVCAR-8 ovarian),TGI (SK-MEL-2 melanoma),TGI (CAKI-1 renal),TGI (MOLT-4 leukemia),TGI (RXF 393 renal),TGI (SR leukemia),TGI (T-47D breast),TGI (786-0 renal),TGI (DU-145 prostate)
O=C(c1ccccc1)C(Nc1ccc2ccccc2c1)c1ccccc1 (stereo unspecified),> 81.5 µM,56.6 µM,> 100 µM,41.8 µM,> 100 µM,> 75.6 µM,> 100 µM,> 71.8 µM,> 100 µM,> 100 µM,> 100 µM
S=C(Nc1ccc2c(c1)oc1ccccc12)c1cccs1,,> 100 µM,> 100 µM,> 100 µM,> 100 µM,> 100 µM,> 100 µM,> 100 µM,> 100 µM,68.9 µM,> 100 µM
CCOC(=O)C1=CNC(C(=O)OCC)C1c1cccn1-c1ccccc1 (stereo unspecified),98.7 µM,> 100 µM,> 100 µM,37.2 µM,> 100 µM,47.3 µM,69 µM,55.3 µM,> 100 µM,> 100 µM,> 100 µM
Cn1nc(-c2ccccc2)c2c(-c3ccccc3)c3cc(Cl)ccc3nc21,> 100 µM,> 100 µM,> 100 µM,> 100 µM,> 100 µM,> 100 µM,> 100 µM,> 100 µM,> 100 µM,> 100 µM,> 100 µM
O=C1CCN2C(=N1)Sc1ccccc12,> 100 µM,,> 100 µM,> 100 µM,> 100 µM,> 100 µM,> 100 µM,> 100 µM,> 100 µM,> 100 µM,> 100 µM
CCCCCCCc1cscc1-c1cscc1Br,80.7 µM,75.6 µM,> 100 µM,34.1 µM,91.2 µM,42.3 µM,67 µM,41.3 µM,88.3 µM,> 100 µM,> 100 µM
O=C1CCSc2nc(-c3ccc4c(c3)OCO4)nn21,> 10 µM,> 10 µM,> 10 µM,> 10 µM,> 10 µM,> 10 µM,> 10 µM,> 10 µM,> 10 µM,> 10 µM,> 10 µM
CCCn1c(=O)c2nn3c(=O)n(CCC)c(=O)c3nn2c1=O,> 100 µM,> 100 µM,> 100 µM,> 100 µM,> 100 µM,> 100 µM,> 100 µM,> 100 µM,> 100 µM,> 100 µM,> 100 µM
